Data: patent publication US10597388B2, “Pyridazinone herbicides” (FMC CORPORATION, priority 2014, dated 2020)

Assays:
Format in all cases: in vivo
corn (Zea mays) = experiment: Test A greenhouse herbicide test, pre- and postemergence; conditions: Postemergence
Summary of the method: (§1)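 Seeds in loam–sand blend received a preemergence directed soil spray; plants at 2–10 cm, one- to two-leaf stage, received postemergence sprays. Compounds in a non-phytotoxic solvent with surfactant. After about 10 d in a greenhouse, injury rated visually versus untreated controls on a 0–100 scale (100 = complete control).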

[1] = tested on: foxtail, giant (giant foxtail, Setaria faberii); experiment: as above
Summary of the method: as §1

kochia (Kochia scoparia) = experiment: as above
Summary of the method: as §1

[2] = tested on: pigweed (Amaranthus retroflexus); experiment: as above
Summary of the method: as §1

[3] = tested on: ragweed (common ragweed, Ambrosia elatior); experiment: as above
Summary of the method: as §1

[4] = tested on: ryegrass, Italian (Italian ryegrass, Lolium multiflorum); experiment: as above
Summary of the method: as §1

[5] = tested on: wheat (Triticum aestivum); experiment: as above; conditions: Postemergence
Summary of the method: as §1

[6] = tested on: johnsongrass (Sorghum halepense); experiment: Test C greenhouse herbicide test, pre- and postemergence
Summary of the method: (§2)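 Seeds sown in loam–sand blend treated preemergence; plants in peat-based medium sprayed postemergence at 2–18 cm (1- to 4-leaf stage); chemicals in non-phytotoxic solvent with surfactant. Greenhouse 13–15 d, then visual rating versus controls on 0–100 scale (0 no effect, 100 complete control).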

[7] = tested on: oilseed rape (Brassica napus); experiment: as above
Summary of the method: as §2

[8] = tested on: ragweed (common ragweed, Ambrosia elatior); experiment: as above
Summary of the method: as §2

[9] = 125 g ai/ha, 0 to 100 scale where 0 is no effect and 100 is complete control
[10] = 500 g ai/ha, visual rating after approx. 10 d, 0 to 100 scale (0 no effect, 100 complete control)
[11] = Postemergence, 125 g ai/ha, 0 to 100 scale where 0 is no effect and 100 is complete control
[12] = Postemergence, 500 g ai/ha, visual rating after approx. 10 d, 0 to 100 scale (0 no effect, 100 complete control)
[13] = Preemergence, 125 g ai/ha, 0 to 100 scale where 0 is no effect and 100 is complete control
[14] = Preemergence, 500 g ai/ha, 0 to 100 scale where 0 is no effect and 100 is complete control
[15] = Postemergence, 31 g ai/ha, scale 0 to 100 (0 no effect, 100 complete control)
[16] = Postemergence, 62 g ai/ha, 0 to 100 scale (0 no effect, 100 complete control)
[17] = Postemergence, 250 g ai/ha, scale 0 to 100, 0 no effect, 100 complete control, 13 to 15 d
[18] = Preemergence, 31 g ai/ha, scale 0 to 100, 0 is no effect, 100 is complete control
[19] = Preemergence, 62 g ai/ha, scale 0 to 100, 0 is no effect, 100 is complete control
[20] = Preemergence, 125 g ai/ha, scale 0 to 100, 0 is no effect, 100 is complete control
[21] = Preemergence, 250 g ai/ha, scale 0 to 100, 0 no effect, 100 complete control
[22] = postemergence, 125 g ai/ha, scale 0 to 100, 0 no effect, 100 complete control
[23] = 500 g ai/ha, 0 to 100 scale, 0 is no effect, 100 is complete control
[24] = Postemergence, 500 g ai/ha, 0 to 100 scale, 0 is no effect, 100 is complete control
[25] = Preemergence, 500 g ai/ha, 0 to 100 scale, 0 no effect, 100 complete control
[26] = Postemergence, 31 g ai/ha, 0 to 100 scale (0 no effect, 100 complete control)
[27] = Postemergence, 125 g ai/ha, scale 0 to 100, 0 is no effect, 100 is complete control
[28] = postemergence, 62 g ai/ha, scale 0 to 100, 0 no effect, 100 complete control

COC(=O)Oc1c(OC)nn(C)c(=O)c1-c1c(C)ccc2ccccc12 [Compound 136]
Plant response rating, Corn (corn (Zea mays); [9]): 30 | Plant response rating, Corn (corn (Zea mays); [10]): 30 | Plant response rating, Foxtail, Giant [1, 11]: 90 | Plant response rating, Foxtail, Giant [1, 12]: 100 | Foxtail, Giant plant response rating [1, 13]: 80 | Plant response rating, Foxtail, Giant [1, 14]: 100 | Plant response rating, Kochia (kochia (Kochia scoparia); [11]): 100 | Plant response rating, Kochia (kochia (Kochia scoparia); [12]): 100 | Kochia plant response rating (kochia (Kochia scoparia); [13]): 60 | Plant response rating, Kochia (kochia (Kochia scoparia); [14]): 90 | Plant response rating, Pigweed [2, 11]: 90 | Plant response rating, Pigweed [2, 12]: 100 | Pigweed plant response rating [2, 13]: 100 | Plant response rating, Pigweed [2, 14]: 100 | Plant response rating, Ragweed [3, 11]: 100 | Plant response rating, Ragweed [3, 12]: 100 | Ragweed plant response rating [3, 13]: 80 | Plant response rating, Ragweed [3, 14]: 90 | Plant response rating, Ryegrass, Italian [4, 11]: 90 | Plant response rating, Ryegrass, Italian [4, 12]: 100 | Ryegrass, Italian plant response rating [4, 13]: 90 | Plant response rating, Ryegrass, Italian [4, 14]: 100 | Plant response rating, Wheat [5, 9]: 0 | Plant response rating, Wheat [5, 10]: 30 | Plant response rating, Johnsongrass [6, 15]: 5 | Johnsongrass plant response rating [6, 16]: 5 | Plant response rating, Johnsongrass [6, 17]: 5 | Plant response rating, Johnsongrass [6, 18]: 5 | Plant response rating, Johnsongrass [6, 19]: 5 | Plant response rating, Johnsongrass [6, 20]: 20 | Johnsongrass plant response rating [6, 21]: 10 | Johnsongrass plant response rating [6, 22]: 5 | Plant response rating, Oilseed Rape [7, 15]: 95 | Oilseed Rape plant response rating [7, 16]: 98 | Plant response rating, Oilseed Rape [7, 17]: 98 | Plant response rating, Oilseed Rape [7, 18]: 10 | Plant response rating, Oilseed Rape [7, 19]: 30 | Plant response rating, Oilseed Rape [7, 20]: 90 | Oilseed Rape plant response rating [7, 21]: 100 | Oilseed Rape plant response rating [7, 22]: 98 | Plant response rating, Ragweed [8, 15]: 0 | Ragweed plant response rating [8, 16]: 0 | Plant response rating, Ragweed [8, 17]: 5 | Plant response rating, Ragweed [8, 18]: 95 | Plant response rating, Ragweed [8, 19]: 98 | Plant response rating, Ragweed [8, 20]: 100 | Ragweed plant response rating [8, 21]: 100 | Ragweed plant response rating [8, 22]: 0

Cc1nn(C)c(=O)c(-c2ccc(F)c3ccccc23)c1O [Compound 41]
Plant response rating, Corn (corn (Zea mays); [9]): 20 | Corn plant response rating (corn (Zea mays); [23]): 70 | Plant response rating, Foxtail, Giant [1, 11]: 70 | Foxtail, Giant plant response rating [1, 24]: 100 | Foxtail, Giant plant response rating [1, 13]: 70 | Plant response rating, Foxtail, Giant [1, 25]: 90 | Plant response rating, Kochia (kochia (Kochia scoparia); [11]): 100 | Kochia plant response rating (kochia (Kochia scoparia); [24]): 100 | Kochia plant response rating (kochia (Kochia scoparia); [13]): 90 | Plant response rating, Kochia (kochia (Kochia scoparia); [25]): 100 | Plant response rating, Pigweed [2, 11]: 60 | Pigweed plant response rating [2, 24]: 90 | Pigweed plant response rating [2, 13]: 100 | Plant response rating, Pigweed [2, 25]: 100 | Plant response rating, Ragweed [3, 11]: 70 | Ragweed plant response rating [3, 24]: 100 | Ragweed plant response rating [3, 13]: 80 | Plant response rating, Ragweed [3, 25]: 90 | Plant response rating, Ryegrass, Italian [4, 11]: 100 | Ryegrass, Italian plant response rating [4, 24]: 100 | Ryegrass, Italian plant response rating [4, 13]: 100 | Plant response rating, Ryegrass, Italian [4, 25]: 100 | Plant response rating, Wheat [5, 9]: 0 | Wheat plant response rating [5, 23]: 80 | Johnsongrass plant response rating [6, 26]: 5 | Plant response rating, Johnsongrass [6, 27]: 10 | Plant response rating, Johnsongrass [6, 17]: 35 | Plant response rating, Johnsongrass [6, 18]: 0 | Plant response rating, Johnsongrass [6, 19]: 50 | Plant response rating, Johnsongrass [6, 20]: 35 | Johnsongrass plant response rating [6, 21]: 35 | Johnsongrass plant response rating [6, 28]: 10 | Oilseed Rape plant response rating [7, 26]: 0 | Plant response rating, Oilseed Rape [7, 27]: 5 | Plant response rating, Oilseed Rape [7, 17]: 0 | Plant response rating, Oilseed Rape [7, 18]: 5 | Plant response rating, Oilseed Rape [7, 19]: 50 | Plant response rating, Oilseed Rape [7, 20]: 40 | Oilseed Rape plant response rating [7, 21]: 100 | Oilseed Rape plant response rating [7, 28]: 0 | Ragweed plant response rating [8, 26]: 70 | Plant response rating, Ragweed [8, 27]: 95 | Plant response rating, Ragweed [8, 17]: 100 | Plant response rating, Ragweed [8, 18]: 85 | Plant response rating, Ragweed [8, 19]: 85 | Plant response rating, Ragweed [8, 20]: 95 | Ragweed plant response rating [8, 21]: 100 | Ragweed plant response rating [8, 28]: 85

CC(=O)Oc1c(C)nn(C)c(=O)c1-c1c(C)cc(C)c2ccccc12 [Compound 99]
Plant response rating, Corn (corn (Zea mays); [9]): 20 | Plant response rating, Corn (corn (Zea mays); [10]): 40 | Plant response rating, Foxtail, Giant [1, 11]: 40 | Plant response rating, Foxtail, Giant [1, 12]: 90 | Foxtail, Giant plant response rating [1, 13]: 50 | Plant response rating, Foxtail, Giant [1, 14]: 80 | Plant response rating, Kochia (kochia (Kochia scoparia); [11]): 30 | Plant response rating, Kochia (kochia (Kochia scoparia); [12]): 70 | Kochia plant response rating (kochia (Kochia scoparia); [13]): 20 | Plant response rating, Kochia (kochia (Kochia scoparia); [14]): 70 | Plant response rating, Pigweed [2, 11]: 70 | Plant response rating, Pigweed [2, 12]: 90 | Pigweed plant response rating [2, 13]: 100 | Plant response rating, Pigweed [2, 14]: 100 | Plant response rating, Ragweed [3, 11]: 100 | Plant response rating, Ragweed [3, 12]: 100 | Ragweed plant response rating [3, 13]: 80 | Plant response rating, Ragweed [3, 14]: 80 | Plant response rating, Ryegrass, Italian [4, 11]: 100 | Plant response rating, Ryegrass, Italian [4, 12]: 100 | Ryegrass, Italian plant response rating [4, 13]: 100 | Plant response rating, Ryegrass, Italian [4, 14]: 100 | Plant response rating, Wheat [5, 9]: 20 | Plant response rating, Wheat [5, 10]: 30 | Plant response rating, Johnsongrass [6, 27]: 10 | Plant response rating, Johnsongrass [6, 17]: 5 | Plant response rating, Johnsongrass [6, 18]: 0 | Plant response rating, Johnsongrass [6, 19]: 0 | Plant response rating, Johnsongrass [6, 20]: 0 | Johnsongrass plant response rating [6, 21]: 20 | Johnsongrass plant response rating [6, 28]: 10 | Plant response rating, Oilseed Rape [7, 27]: 60 | Plant response rating, Oilseed Rape [7, 17]: 55 | Plant response rating, Oilseed Rape [7, 18]: 0 | Plant response rating, Oilseed Rape [7, 19]: 40 | Plant response rating, Oilseed Rape [7, 20]: 90 | Oilseed Rape plant response rating [7, 21]: 98 | Oilseed Rape plant response rating [7, 28]: 5 | Plant response rating, Ragweed [8, 27]: 95 | Plant response rating, Ragweed [8, 17]: 100 | Plant response rating, Ragweed [8, 18]: 70 | Plant response rating, Ragweed [8, 19]: 90 | Plant response rating, Ragweed [8, 20]: 95 | Ragweed plant response rating [8, 21]: 95 | Ragweed plant response rating [8, 28]: 90
